Laboratory results as given in ChEMBL document CHEMBL1156367, “Makaluvamine P, a new cytotoxic pyrroloiminoquinone from Zyzzya cf. fuliginosa” (J Nat Prod, 2001).

Key:
[1] = ABTS radical scavenging activity assessed as trolox equivalents by TEAC assay; format: physicochemical
KB = assay: Cytotoxicity against human KB cells at 3.2 ug/mL after 48 hrs by XTT assay; format: functional
[2] = target: Xanthine dehydrogenase/oxidase (Homo sapiens, UniProt P47989); assay: Inhibition of xanthine oxidase by spectrophotometry
Chain of Xanthine dehydrogenase/oxidase (P47989 whole entry): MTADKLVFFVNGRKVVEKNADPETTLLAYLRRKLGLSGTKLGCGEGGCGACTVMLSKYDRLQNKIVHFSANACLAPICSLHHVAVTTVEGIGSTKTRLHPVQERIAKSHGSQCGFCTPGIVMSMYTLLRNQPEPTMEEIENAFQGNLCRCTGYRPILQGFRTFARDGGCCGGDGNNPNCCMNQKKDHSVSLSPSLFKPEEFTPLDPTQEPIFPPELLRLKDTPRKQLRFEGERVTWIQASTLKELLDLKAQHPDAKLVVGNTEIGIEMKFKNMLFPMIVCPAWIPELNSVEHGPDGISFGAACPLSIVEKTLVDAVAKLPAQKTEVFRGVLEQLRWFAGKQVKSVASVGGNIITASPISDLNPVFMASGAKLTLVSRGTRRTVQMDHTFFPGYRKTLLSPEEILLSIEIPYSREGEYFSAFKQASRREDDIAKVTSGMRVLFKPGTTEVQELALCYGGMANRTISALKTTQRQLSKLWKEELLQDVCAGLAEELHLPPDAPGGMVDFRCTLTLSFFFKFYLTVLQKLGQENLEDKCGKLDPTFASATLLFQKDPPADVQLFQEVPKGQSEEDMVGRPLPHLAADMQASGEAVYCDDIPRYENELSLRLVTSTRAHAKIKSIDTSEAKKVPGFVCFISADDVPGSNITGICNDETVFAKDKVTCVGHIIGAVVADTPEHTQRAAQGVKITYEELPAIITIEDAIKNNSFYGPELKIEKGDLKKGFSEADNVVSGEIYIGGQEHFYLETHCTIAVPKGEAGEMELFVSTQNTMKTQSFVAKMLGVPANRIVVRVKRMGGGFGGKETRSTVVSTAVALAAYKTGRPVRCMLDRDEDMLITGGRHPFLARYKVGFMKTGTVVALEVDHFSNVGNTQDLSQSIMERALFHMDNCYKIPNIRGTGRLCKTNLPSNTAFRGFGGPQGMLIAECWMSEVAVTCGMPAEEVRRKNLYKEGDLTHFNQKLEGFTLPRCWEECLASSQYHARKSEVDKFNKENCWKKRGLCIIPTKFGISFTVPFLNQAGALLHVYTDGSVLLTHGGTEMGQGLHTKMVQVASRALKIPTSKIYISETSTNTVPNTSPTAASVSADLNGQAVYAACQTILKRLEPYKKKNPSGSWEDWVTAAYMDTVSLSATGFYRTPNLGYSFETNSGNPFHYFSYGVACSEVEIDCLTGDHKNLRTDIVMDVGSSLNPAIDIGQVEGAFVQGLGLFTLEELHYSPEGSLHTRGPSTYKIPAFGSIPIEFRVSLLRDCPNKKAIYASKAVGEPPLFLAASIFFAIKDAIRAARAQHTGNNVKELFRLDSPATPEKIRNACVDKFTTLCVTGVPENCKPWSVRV

SMILES: Cn1cc2c3c1C(=O)C(NCCc1ccc(O)cc1)=CC3=[N+](C)CC2.[Cl-] [MAKALUVAMINE P]
- Activity [1]: 0.341
- inhibition at 3.2 µg/mL (KB): 64%
- IC50 [2]: 16.5 µM
